Experiment: xn = mol fraction of the nth substance listed
Conditions: 101 kPa, Liquid; for speed of sound: Single path-length method; for mass density: Vibrating tube method

C[N+]1(CC2CO2)CCCC1=O.O=C([O-])c1ccccc1O (stereo not given) [1-methyl-1-(oxiran-2-ylmethyl)-2-oxopyrrolidinium salicylate] + CC(=O)O
Conditions	mass density, 293.15 K [kg/m3]	mass density, 298.15 K [kg/m3]	mass density, 303.15 K [kg/m3]	mass density, 308.15 K [kg/m3]	mass density, 313.15 K [kg/m3]	speed of sound, 293.15 K [m/s]	speed of sound, 298.15 K [m/s]	speed of sound, 303.15 K [m/s]	speed of sound, 308.15 K [m/s]	speed of sound, 313.15 K [m/s]
x1 = 0.0301	1080.9	1075.6	1070.3	1065	1059.7	1250	1232.7	1215.5	1198.6	1181.8
x1 = 0.0701	1103.7	1098.6	1093.5	1088.4	1083.3	1310.7	1294	1277.3	1260.7	1244.4
x1 = 0.1001	1117.2	1112.3	1107.3	1102.4	1097.4	1349.7	1333.2	1316.5	1300.1	1283.9
x1 = 0.2001	1147.6	1143	1138.3	1133.6	1128.8	1441	1424.6	1408.1	1391.8	1375.7
x1 = 0.3003	1166.3	1161.7	1157.2	1152.7	1148.9	1496.7	1480.2	1463.7	1447.5	1431
x1 = 0.4013	1178.7	1174.2	1169.7	1165.5	1161	1535	1515.8	1497.4	1480.2	1463.1
x1 = 0.5017	1187.3	1183	1178.7	1174.5	1170.1	1561.4	1541.8	1523.2	1504.9	1488.8
x1 = 0.6002	1193.9	1189.6	1185.4	1181.3	1177	1582.2	1562.5	1542.9	1528.5	1515.4
x1 = 0.7019	1199.1	1194.9	1190.7	1186.7	1182.5	1600	1582	1565.2	1548.8	1532.6
x1 = 0.8024	1203.6	1199.3	1195.1	1191	1186.7	1617.3	1600	1583	1566.5	1550.4
x1 = 0.901	1207	1202.7	1198.6	1194.5	1190.2	1626.8	1609.2	1592.2	1575.7	1559.5
x1 = 1	1209.8	1205.5	1201.3	1197.2	1193	1634.2	1614.5	1595.7	1577.6	1559.5

Source: the NIST ThermoML archive (doi:10.1021/acs.jced.8b01204)
